The subject of the assay is B6C3F1 mice, B16 melanoma ip, median survival T/C. Nature of the assay: NCI In Vivo Anticancer Drug Screen. Data for tumor model B16 Melanoma (intraperitoneal) in B6C3F1 mice. The following applies: endpoint: median survival time, higher = longer survival. In short, it runs like this: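 Antitumor effect was judged in mice with transplanted tumors by dividing the treated group's survival measure by that of vehicle controls.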

[1] abbreviates: dose: 12.5 mg/kg/injection, schedule: Q01DX009 (ip), vehicle: saline.
[2] abbreviates: dose: 25.0 mg/kg/injection, schedule: Q01DX009 (ip), vehicle: saline.
[3] abbreviates: dose: 50.0 mg/kg/injection, schedule: Q01DX009 (ip), vehicle: saline.
Where [4] appears, read: dose: 100.0 mg/kg/injection, schedule: Q01DX009 (ip), vehicle: saline.
The mark [5] stands for this setting: dose: 200.0 mg/kg/injection, schedule: Q01DX009 (ip), vehicle: saline.
Setting [6] is: dose: 400.0 mg/kg/injection, schedule: Q01DX009 (ip), vehicle: saline.

From PubChem BioAssay AID200 (DTP/NCI, 2004) come the findings set out here.

Molecules are shown by their SMILES. Several values for one entry are separate records, joined by “and”; a condition that tells them apart may be missing. Equal entries are not always repeated. Toxic doses and inconclusive results are not listed.

Consider `O=C1c2c(O)ccc(O)c2C(=O)c2c(NCCNCCO)ccc(NCCNCCO)c21`, for which the T/C by setting is: (dose: 0.12 mg/kg/injection, schedule: Q01DX009 (ip), vehicle: water) 111 % of control; (dose: 0.12 mg/kg/injection, schedule: Q03HX024 (ip), vehicle: acid diluted with saline) 287 % of control; (dose: 0.13 mg/kg/injection, schedule: Q01DX009 (ip), vehicle: water) 184 % of control; (dose: 0.25 mg/kg/injection, schedule: Q01DX005 (ip), vehicle: saline) 183 % of control; (dose: 0.25 mg/kg/injection, schedule: Q01DX005 (iv), vehicle: acid diluted with saline) 102 % of control; (dose: 0.25 mg/kg/injection, schedule: Q01DX005 (iv), vehicle: saline) 88 % of control. Besides, the T/C reads like this: (dose: 0.25 mg/kg/injection, schedule: Q01DX009 (ip), vehicle: acid diluted with saline) 172 % of control; (dose: 0.25 mg/kg/injection, schedule: Q01DX009 (ip), vehicle: water) 212 % of control [middle of 4 runs]; (dose: 0.25 mg/kg/injection, schedule: Q01DX009 (sc), vehicle: acid diluted with saline) 101 % of control; (dose: 0.25 mg/kg/injection, schedule: Q03HX008 (ip), vehicle: acid diluted with saline) 206 % of control; (dose: 0.25 mg/kg/injection, schedule: Q03HX024 (ip), vehicle: acid diluted with saline) 292 % of control; (dose: 0.31 mg/kg/injection, schedule: Q01DX009 (ip), vehicle: water) 168 % of control. Also, the T/C is 206 % of control (dose: 0.5 mg/kg/injection, schedule: Q01DX005 (ip), vehicle: saline); 99 % of control (dose: 0.5 mg/kg/injection, schedule: Q01DX005 (iv), vehicle: acid diluted with saline); 93 % of control (dose: 0.5 mg/kg/injection, schedule: Q01DX005 (iv), vehicle: saline); 185 % of control (dose: 0.5 mg/kg/injection, schedule: Q01DX009 (ip), vehicle: acid diluted with saline); 222 % of control (dose: 0.5 mg/kg/injection, schedule: Q01DX009 (ip), vehicle: other); 216 % of control and 326 % of control and 337 % of control (dose: 0.5 mg/kg/injection, schedule: Q01DX009 (ip), vehicle: water). The T/C was 121 % of control (dose: 0.5 mg/kg/injection, schedule: Q01DX009 (sc), vehicle: acid diluted with saline); 219 % of control (dose: 0.5 mg/kg/injection, schedule: Q03HX008 (ip), vehicle: acid diluted with saline); 198 % of control and 234 % of control (dose: 0.62 mg/kg/injection, schedule: Q01DX009 (ip), vehicle: water); 275 % of control (dose: 1.0 mg/kg/injection, schedule: Q01DX005 (ip), vehicle: saline); 99 % of control (dose: 1.0 mg/kg/injection, schedule: Q01DX005 (iv), vehicle: acid diluted with saline); 105 % of control (dose: 1.0 mg/kg/injection, schedule: Q01DX005 (iv), vehicle: saline). In addition, the T/C reads like this: (dose: 1.0 mg/kg/injection, schedule: Q01DX009 (ip), vehicle: acid diluted with saline) 229 % of control; (dose: 1.0 mg/kg/injection, schedule: Q01DX009 (ip), vehicle: other) 220 % of control; (dose: 1.0 mg/kg/injection, schedule: Q01DX009 (ip), vehicle: water) 326 % of control [middle of 4 runs]; (dose: 1.0 mg/kg/injection, schedule: Q01DX009 (oral), vehicle: acid diluted with saline) 103 % of control; (dose: 1.0 mg/kg/injection, schedule: Q03HX008 (ip), vehicle: acid diluted with saline) 284 % of control; (dose: 1.0 mg/kg/injection, schedule: Q04DX003 (ip), vehicle: acid diluted with saline) 200 % of control. Besides, the T/C runs as follows: (dose: 1.25 mg/kg/injection, schedule: Q01DX009 (ip), vehicle: water) 238 % of control and 252 % of control; (dose: 2.0 mg/kg/injection, schedule: Q01DX005 (ip), vehicle: saline) 275 % of control; (dose: 2.0 mg/kg/injection, schedule: Q01DX005 (iv), vehicle: acid diluted with saline) 121 % of control; (dose: 2.0 mg/kg/injection, schedule: Q01DX005 (iv), vehicle: saline) 100 % of control; (dose: 2.0 mg/kg/injection, schedule: Q01DX009 (ip), vehicle: acid diluted with saline) 151 % of control; (dose: 2.0 mg/kg/injection, schedule: Q01DX009 (ip), vehicle: other) 105 % of control. For the same molecule, the T/C was 162 % of control and 187 % of control (dose: 2.0 mg/kg/injection, schedule: Q01DX009 (ip), vehicle: water); 102 % of control (dose: 2.0 mg/kg/injection, schedule: Q01DX009 (oral), vehicle: acid diluted with saline); 292 % of control (dose: 2.0 mg/kg/injection, schedule: Q03HX008 (ip), vehicle: acid diluted with saline); 224 % of control (dose: 2.0 mg/kg/injection, schedule: Q04DX003 (ip), vehicle: acid diluted with saline); 200 % of control and 254 % of control (dose: 4.0 mg/kg/injection, schedule: Q01DX001 (ip), vehicle: acid diluted with saline); 108 % of control (dose: 4.0 mg/kg/injection, schedule: Q01DX001 (iv), vehicle: acid diluted with saline). Moreover, the T/C runs as follows: (dose: 4.0 mg/kg/injection, schedule: Q01DX009 (ip), vehicle: water) 262 % of control; (dose: 4.0 mg/kg/injection, schedule: Q01DX009 (oral), vehicle: acid diluted with saline) 96 % of control; (dose: 4.0 mg/kg/injection, schedule: Q04DX003 (ip), vehicle: acid diluted with saline) 278 % of control; (dose: 8.0 mg/kg/injection, schedule: Q01DX001 (ip), vehicle: acid diluted with saline) 219 % of control and 260 % of control; (dose: 8.0 mg/kg/injection, schedule: Q01DX001 (iv), vehicle: acid diluted with saline) 104 % of control; (dose: 8.0 mg/kg/injection, schedule: Q04DX003 (ip), vehicle: acid diluted with saline) 92 % of control. The T/C is 245 % of control and 98 % of control (dose: 9.0 mg/kg/injection, schedule: Q01DX001 (ip), vehicle: acid diluted with saline); 220 % of control and 292 % of control (dose: 16.0 mg/kg/injection, schedule: Q01DX001 (ip), vehicle: acid diluted with saline); 196 % of control (dose: 18.0 mg/kg/injection, schedule: Q01DX001 (ip), vehicle: acid diluted with saline); 234 % of control (dose: 32.0 mg/kg/injection, schedule: Q01DX001 (ip), vehicle: acid diluted with saline).
Regarding `CONc1ccn(C2OC(CO)C(O)C2O)c(=O)n1` (stereo unspecified), the T/C is, setting by setting: under setting [1], 92 % of control and 98 % of control; under setting [2], 101 % of control and 102 % of control; under setting [3], 103 % of control and 104 % of control; under setting [4], 91 % of control and 106 % of control; under setting [5], 113 % of control and 91 % of control; under setting [6], 89 % of control and 94 % of control.
Consider `C(COCCOCC1CO1)OCCOCC1CO1` (stereo unspecified), for which the T/C was 108 % of control under setting [1]; 104 % of control under setting [2]; 107 % of control under setting [3]; 153 % of control under setting [5]; 178 % of control under setting [6].
`OCC12COCN1COC2`: the T/C runs as follows: under setting [1], 98 % of control; under setting [2], 113 % of control; under setting [3], 113 % of control and 101 % of control; under setting [4], 110 % of control and 100 % of control; under setting [5], 108 % of control and 110 % of control; under setting [6], 121 % of control and 105 % of control.
`C=C1C(=O)C2=CC1CCC(=O)C1(C)CCC(OC(C)=O)C(C)(C)C1CC2O` (stereo unspecified): the T/C was 96 % of control (dose: 1.88 mg/kg/injection, schedule: Q01DX009 (ip), vehicle: Klucel (hydroxypropylcellulose) (HPC)); 104 % of control and 106 % of control (dose: 3.75 mg/kg/injection, schedule: Q01DX009 (ip), vehicle: Klucel (hydroxypropylcellulose) (HPC)); 111 % of control and 89 % of control (dose: 7.5 mg/kg/injection, schedule: Q01DX009 (ip), vehicle: Klucel (hydroxypropylcellulose) (HPC)); 114 % of control and 100 % of control (dose: 15.0 mg/kg/injection, schedule: Q01DX009 (ip), vehicle: Klucel (hydroxypropylcellulose) (HPC)); 118 % of control and 104 % of control (dose: 30.0 mg/kg/injection, schedule: Q01DX009 (ip), vehicle: Klucel (hydroxypropylcellulose) (HPC)).
Regarding `Cc1cccc2c1CC(C(C)C)C2` (stereo unspecified), the T/C runs as follows: (dose: 50.0 mg/kg/injection, schedule: Q01DX009 (ip), vehicle: saline with Tween-80) 105 % of control; (dose: 100.0 mg/kg/injection, schedule: Q01DX009 (ip), vehicle: saline with Tween-80) 93 % of control.
